Source: publication PMC2226154 (The Journal of General Physiology, 1974)
Read-outs that look alike come from different tables or passages of the source.

Columns and labels:
[1] = target: T1, neutral amino acid transport system in rabbit ileum (Oryctolagus cuniculus, UniProt B4XTG9); assay: Inhibition of L-methionine-14C influx across the brush border membrane; details: for fold decrease in apparent affinity: compared to the corresponding parent compound
[2] = target: T1, neutral amino acid transport system in rabbit ileum; details: Hajjar and Curran, phenylalanine analogs; cited from earlier work
[3] = target: T1, neutral amino acid transport system in rabbit ileum; details: direct measurement of influx; cited from earlier work
[4] = measured by Church and Hansch, unpublished; cited from earlier work

With `CCOC(=O)CCC(N)C(=O)O` (stereo not drawn) [Glutamic acid 7-ethyl ester] as the compound, how does the “fold higher affinity than glutamic acid” value [1] read?
The value was 10 fold.

For `CC(C)(C)C(N)C(=O)O` (stereo not drawn) [tertiary leucine], which “fold decrease in apparent affinity” value [1] is on record?
Its value is roughly 10 fold.

Which “fold higher affinity than glutamic acid” value [1] does the source give for `COC(=O)CC[C@H](N)C(=O)O` [Glutamic acid Y-methyl ester] here?
The value was 10 fold.

For `O[C@@H](CS)[C@@H](O)CS` (racemic) [Dithiothreitol], which “effect on methionine influx” value ([1]; 30 mM, separate control experiments) is on record?
Its value is “minimal effect”.

With `CCC(O)C(N)C(=O)O` (stereo not drawn) [a-Amino-b-hydroxy valeric acid, a-amino-b-hydroxyvaleric acid] as the compound, how does the Ki ([1]; read-out: KI observed, Table V, [Na] 35) read?
Its Ki is 5 mM.

With `O=C(O)C(O)Cc1ccccc1` (stereo not drawn) [phenyllactic acid] as the compound, how does the Apparent affinity [2] read?
The Apparent affinity was 0.8 M⁻¹.

Which Apparent affinity [3] does the source give for `CC(C)C[C@H](N)C(=O)O` [Leucine] here?
Its Apparent affinity is 32 M⁻¹.

For `C=CC[C@H](N)C(=O)O` [Allylglycine], which “affinity lower than that of norvaline” value [1] is on record?
The value was “approximately 30%”.

For `C[C@H](N)C(=O)O` [Alanine], which Apparent affinity [3] is on record?
Its Apparent affinity is 14 M⁻¹.

What about the “log P (octanol/water partition coefficient)” value [4] of the same compound?
Its value is -2.94.

For `CCSCC[C@H](N)C(=O)O` [Ethionine], which “observed ratio of KI” value ([1]; 0.5 mM methionine (reference)) is on record?
Its value is 1.00.

What about the “observed ratio of KI” value ([1]; 2 mM methionine relative to 0.5 mM) of the same compound?
The value was 0.98.

What about the “observed ratio of KI” value ([1]; 3 mM methionine relative to 0.5 mM) of the same compound?
The value was 1.08.

With `N[C@@H](Cc1ccccc1)C(=O)O` [Phenylalanine] as the compound, how does the Apparent affinity [2] read?
The Apparent affinity was 56 M⁻¹.

Which “fold decrease in apparent affinity” value [1] does the source give for `CSCC[C@@H](N)C(=O)O` [D-methionine] here?
The value was “approximately 50 fold”.

Which Apparent affinity [3] does the source give for `NCC(=O)O` [Glycine] here?
Its Apparent affinity is 8 M⁻¹.

For `O=C(O)CCc1ccccc1` [phenylpropionic acid], which Apparent affinity [2] is on record?
The Apparent affinity was 1.2 M⁻¹.

With `CN[C@@H](Cc1ccccc1)C(=O)O` [N-methyl phenylalanine] as the compound, how does the Apparent affinity [2] read?
Its Apparent affinity is “very low apparent affinity”.
